This experiment has as its target T1, HDM2 (Homo sapiens, UniProt Q00987).
T1 construct: Thioredoxin (N); made in house; host or cells: E. coli strain BL21(DE3)Rosetta
As to the kind of experiment: HDM2 FRET assay (inhibition of binding of FITC labeled p53-pocket peptide to HDM2). The note with it: read-out: FRET IC50. The procedure, abridged: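 Compounds were tested in 10-point serial dilution against 0.5 nM recombinant HDM2 binding 3 nM fluorescein-labeled p53-pocket peptide. Detection used 0.25 nM terbium cryptate anti-6xHis antibody in PBS buffer containing 0.01% BSA and 0.01% Tween-20.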

The mark [1] stands for this setting: 0.5 nM HDM2 (residues 17 to 125), 3nM peptide, two hour incubation at room temperature.

The term IC50 denotes the concentration that inhibits the measured activity by half.

Where two headings read alike, the source gives them in different places.

T1 sequence (Q00987 17-125): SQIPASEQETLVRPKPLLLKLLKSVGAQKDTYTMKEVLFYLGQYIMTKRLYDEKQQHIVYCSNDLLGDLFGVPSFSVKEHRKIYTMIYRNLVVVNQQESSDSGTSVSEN

Consider `COc1cccc(C2CCCCN2c2nc3nc(C(=O)O)nc(N[C@H](C)C4CCC4)c3n2C[C@H]2CC[C@H](C)CC2)c1` (stereo partly drawn) [Example 11.31, 6-{[(1R)-1-cyclobutylethyl]amino}-8-[2-(3-methoxyphenyl)piperidin-1-yl]-7-[(trans-4-methylcyclohexyl)methyl]-7H-purine-2-carboxylic acid], for which the half-maximal inhibitory concentration (IC50) (Table 11) is 2.26 nM. As to `C[C@@H](Nc1nc(C(=O)NS(=O)(=O)N(C)C)nc2nc(N3CCOC[C@H]3c3ccccc3)n(C[C@H]3CC[C@H](C)CC3)c12)C1CCC1` [Example 12.24, 6-{[(1R)-1-cyclobutylethyl]amino}-N-(dimethylsulfamoyl)-7-[(trans-4-methylcyclohexyl)methyl]-8-[(3R)-3-phenylmorpholin-4-yl]-7H-purine-2-carboxamide], under setting [1], the IC50 turned out to be 1.41 nM.

Regarding `C[C@@H](Nc1nc(C(=O)O)nc2nc(N3CCC4CCCCC4C3)n(C[C@H]3CC[C@H](C)CC3)c12)C1CCC1` (stereo partly drawn) [Example 11.22, 6-{[(1R)-1-cyclobutylethyl]amino}-7-[(trans-4-methylcyclohexyl)methyl]-8-(octahydroisoquinolin-2(1H)-yl)-7H-purine-2-carboxylic acid], the IC50 (Table 11) came to 18 nM. Turning to `COC(C)(c1ccccc1F)c1nc2nc(-c3noc(=O)[nH]3)nc(-c3cncc(Cl)c3)c2n1C[C@H]1CC[C@H](C)CC1` (single isomer, unassigned) [Example 23.49, 3-{6-(5-chloropyridin-3-yl)-8-[1-(2-fluorophenyl)-1-methoxyethyl]-7-[(trans-4-methylcyclohexyl)methyl]-7H-purin-2-yl}-1,2,4-oxadiazol-5(4H)-one], the IC50 (Table 23) turned out to be 0.888 nM. As to `CNC(=O)CC[C@@H](Nc1nc(C(=O)O)nc2nc(-c3cccc(C)c3)n(Cc3ccc(C(F)(F)F)cc3)c12)C1CCC1` [Example 7.13, 6-{[(1R)-1-cyclobutyl-4-(methylamino)-4-oxobutyl]amino}-8-(3-methylphenyl)-7-[4-(trifluoromethyl)benzyl]-7H-purine-2-carboxylic acid], the IC50 (Table 7) was found to be 102 nM. `CC(C)C1CCCN(c2nc3nc(C(=O)O)nc(N[C@H](C)C4CCC4)c3n2Cc2ccc(C(F)(F)F)cc2)C1` (stereo partly drawn) [Example 9.46, 6-{[(1R)-1-cyclobutylethyl]amino}-8-[3-(1-methylethyl)piperidin-1-yl]-7-[4-(trifluoromethyl)benzyl]-7H-purine-2-carboxylic acid]: under “Table 9”, the IC50 amounted to 26.2 nM. The same measure, in the same setting: the figure for `C[C@@H](Nc1nc(C(=O)O)nc2nc(N(C)c3ccccc3)n(Cc3ccc(C(F)(F)F)cc3)c12)C1CCC1` [Example 9.2, 6-{[(1R)-1-cyclobutylethyl]amino}-8-[methyl(phenyl)amino]-7-[4-(trifluoromethyl)benzyl]-7H-purine-2-carboxylic acid] is 20.7 nM. With `C[C@@H](Nc1nc(C(=O)O)nc2nc(-c3ccc4sccc4c3)n(Cc3ccc(C(F)(F)F)cc3)c12)C1CC1` [Example 6.13, 8-(1-benzothiophen-5-yl)-6-{[(1R)-1-cyclopropylethyl]amino}-7-[4-(trifluoromethyl)benzyl]-7H-purine-2-carboxylic acid], the IC50 (Table 6) was found to be 16.3 nM.

Consider `Cc1ncc(Cl)cc1-c1nc(-c2n[nH]c(=O)o2)nc2nc(N3CCOC[C@H]3c3ccccc3)n(C[C@H]3CC[C@H](C)CC3)c12` [Example 16.159, 5-{6-(5-chloro-2-methylpyridin-3-yl)-7-[(trans-4-methylcyclohexyl)methyl]-8-[(3R)-3-phenylmorpholin-4-yl]-7H -purin-2-yl}-1,3,4-oxadiazol-2(3H)-one], for which the IC50 under setting [1] was found to be 0.704 nM.

Turning to `Cc1cccc(-c2nc3nc(C(=O)O)nc(NC4CCC(CO)CC4)c3n2Cc2ccc(C(F)(F)F)cc2)c1` (stereo not shown) [Example 6.40, 6-{[4-(hydroxymethyl)cyclohexyl]amino}-8-(3-methylphenyl)-7-[4-(trifluoromethyl)benzyl]-7H-purine-2-carboxylic acid], for the setting “Table 6”, the IC50 came to 925 nM. Consider `C[C@H]1CC[C@H](Cn2c(N3CCOC[C@H]3c3ccccc3)nc3nc(-c4noc(=O)[nH]4)nc(-c4cc(Cl)ccc4F)c32)CC1` [Example 16.25, 3-{6-(5-chloro-2-fluorophenyl)-7-[(trans-4-methylcyclohexyl)methyl]-8-[(3R)-3-phenylmorpholin-4-yl]-7H-purin-2-yl} -1,2,4-oxadiazol-5(4H)-one], for which, under setting [1], the IC50 came to 1.63 nM. Still for that read-out and setting: then `C[C@H]1CC[C@H](Cn2c(N3CCOC[C@H]3c3ccncc3)nc3nc(-c4n[nH]c(=O)o4)nc(-c4cccc(Cl)c4)c32)CC1` [Example 16.97, 5-{6-(3-chlorophenyl)-7-[(trans-4-methylcyclohexyl)methyl]-8-[(3R)-3-pyridin-4-ylmorpholin-4-yl]-7H-purin-2-yl}-1,3,4-oxadiazol-2(3H)-one], with 3.81 nM. On to `CC(c1ccccc1F)c1nc2nc(-c3noc(=O)[nH]3)nc(N[C@H](C)C3CCC3)c2n1C[C@H]1CC[C@H](C)CC1` (single isomer, unassigned) [Example 21.36], for which the IC50 (Table 21) is 43.1 nM. Regarding `Cc1nc(C(C)(F)c2nc3nc(-c4noc(=O)[nH]4)nc(N[C@H](C)C4CCC4)c3n2C[C@H]2CC[C@H](C)CC2)c(C)s1` (single isomer, unassigned) [Example 22.73], the IC50 (Table 22) is 4.06 nM. Consider `Cc1noc([C@@H]2COCCN2c2nc3nc(-c4n[nH]c(=O)o4)nc(-c4cccc(Cl)c4)c3n2C[C@H]2CC[C@H](C)CC2)n1` [Example 16.121, 5-{6-(3-chlorophenyl)-7-[(trans-4-methylcyclohexyl)methyl]-8-[(3S)-3-(3-methyl-1,2,4-oxadiazol-5-yl)morpholin-4-yl]-7H-purin-2-yl}-1,3,4-oxadiazol-2(3H)-one], for which the IC50 under setting [1] stood at 9.18 nM. `CC1CCCN(c2nc3nc(C(=O)O)nc(N[C@H](C)C4CCC4)c3n2Cc2ccc(C(F)(F)F)cc2)C1` (stereo partly drawn) [Example 9.40, 6-{[(1R)-1-cyclobutylethyl]amino}-8-(3-methylpiperidin-1-yl)-7-[4-(trifluoromethyl)benzyl]-7H-purine-2-carboxylic acid]: the IC50 (Table 9) was found to be 12.2 nM. For `C[C@H]1CC[C@H](Cn2c(N3CCO[C@@H]4CCC[C@H]43)nc3nc(-c4n[nH]c(=O)o4)nc(-c4cncc(Cl)c4)c32)CC1` [Example 16.90, 5-{6-(5-chloropyridin-3-yl)-8-[(4aR,7aR)-hexahydrocyclopenta [b][1,4]oxazin-4(4aH)-yl]-7-[(trans-4-methylcyclohexyl)methyl]-7H-purin-2-yl}-1,3,4-oxadiazol-2(3H)-one], under setting [1], the IC50 came to 2.28 nM. For `C[C@@H](Nc1nc(C(=O)O)nc2nc(N3CCCc4ccccc43)n(Cc3ccc(C(F)(F)F)cc3)c12)C1CCC1` [Example 9.124, 6-{[(1R)-1-cyclobutylethyl]amino}-8-(3,4-dihydroquinolin-1(2H)-yl)-7-[4-(trifluoromethyl)benzyl]-7H-purine-2-carboxylic acid], the IC50 (Table 9) was 10.4 nM. As for `C[C@@H](Nc1nc(C(=O)O)nc2nc(C3CCCCN3)n(Cc3ccc(C(F)(F)F)cc3)c12)C1CCC1` (stereo partly drawn) [Example 10.24, 6-(((R)-1-Cyclobutylethyl)amino)-8-(piperidin-2-yl)-7-(4-(trifluoromethyl)benzyl)-7H-purine-2-carboxylic acid], under “Table 10”, the IC50 was found to be 96.3 nM. As for `C[C@@H](Nc1nc(S(=O)(=O)CC(F)(F)F)nc2nc(N3CCOC[C@H]3c3ccccc3)n(C[C@H]3CC[C@H](C)CC3)c12)C1CCC1` [Example 14.15, N-[(1R)-1-cyclobutylethyl]-7-[(trans-4-methylcyclohexyl)methyl]-8-[(3R)-3-phenylmorpholin-4-yl]-2-[(2,2,2-trifluoroethyl)sulfonyl]-7H-purin-6-amine], the IC50 under setting [1] amounted to 220 nM.

Turning to `C[C@@H](Nc1nc(C(=O)O)nc2nc(C(=O)N3CCCC(C)(C)C3)n(Cc3ccc(C(F)(F)F)cc3)c12)C1CCC1` [Example 10.21, (R)-6-((1-Cyclobutylethyl)amino)-8-(3,3-dimethylpiperidine-1-carbonyl)-7-(4-(trifluoromethyl)benzyl)-7H-purine-2-carboxylic acid], for the setting “Table 10”, the IC50 is 22.3 nM.

For the molecule `C[C@H]1CC[C@H](Cn2c(N3CCOCC34CC4)nc3nc(-c4n[nH]c(=O)o4)nc(-c4cccc(Cl)c4)c32)CC1` [Example 16.88, 5-[6-(3-chlorophenyl)-7-[(trans-4-methylcyclohexyl)methyl]-8-(7-oxa-4-azaspiro[2.5]oct-4-yl)-7H-purin-2-yl]-1,3,4-oxadiazol-2(3H)-one], the IC50 under setting [1] amounted to 39.1 nM. For `C[C@@H](Nc1nc(C(=O)O)nc2nc(N3CCCC(c4ccccc4)C3)n(Cc3ccc(C(F)(F)F)cc3)c12)C1CCC1` (stereo partly drawn) [Example 9.41, 6-{[(1R)-1-cyclobutylethyl]amino}-8-(3-phenylpiperidin-1-yl)-7-[4-(trifluoromethyl)benzyl]-7H-purine-2-carboxylic acid], the IC50 (Table 9) came to 27.3 nM. For `CC(C)c1cc(-c2nc3nc(-c4noc(=O)[nH]4)nc(N[C@H](C)C4CCC4)c3n2C[C@H]2CC[C@H](C)CC2)[nH]c(=O)c1` [Example 15.25, 6-[6-{[(1R)-1-cyclobutylethyl]amino}-7-[(trans-4-methylcyclohexyl)methyl]-2-(5-oxo-2,5-dihydro-1,2,4-oxadiazol-3-yl)-7H-purin-8-yl]-4-(1-methylethyl)pyridin-2(1H)-one], the IC50 under setting [1] was 6.74 nM. In the case of `C[C@@H]1COC[C@@H](C)N1c1nc2nc(-c3n[nH]c(=O)o3)nc(-c3cccc(Cl)c3)c2n1C[C@H]1CC[C@H](C)CC1` [Example 16.147, 5-{6-(3-chlorophenyl)-8-[(3R,5R)-3,5-dimethylmorpholin-4-yl]-7-[(trans-4-methylcyclohexyl)methyl]-7H-purin-2-yl}-1,3,4-oxadiazol-2(3H)-one], the IC50 under setting [1] stood at 5.52 nM.

The record behind these values is patent EP2951180B1, “2,6,7,8 SUBSTITUTED PURINES AS HDM2 INHIBITORS” (Merck Sharp & Dohme Corp., priority 2013, dated 2014).
